# Data published in patent US20050003422A1, “Methods for assessing and treating cancer” (priority 2003, published 2005).
# Test system: AML patients
# Experiment: Clinical response of relapsed or refractory AML patients treated with the FTI
# Type: in vivo, human
# Details: of a total of 199 evaluable AML patients; 600 mg b.i.d. oral, first 21 days of each 28 day cycle
# Protocol: In the nonprophetic examples, AML patients were administered 600 mg of (R)-6-[amino(4-chlorophenyl)(1-methyl-1H-imidazol-5-yl)methyl]-4-(3-chlorophenyl)-1-methyl-2(1H)-quinolinone) (referred to as Zamestra™) at a starting oral dose of 600 mg b.i.d. for the first 21 days of each 28 day cycle in AML. Subjects were enrolled into two cohorts, those with relapsed AML and those with refractory AML. A total of […] patients (135 relapsed and 117 refractory) were treated.
# Anti-leukemic activity is defined as any bone marrow blast count less than 5% or a reduction in bone marrow blasts by at least half.
# The average value of the site and DCL blast count measurements were calculated and a Student's t-test was performed to investigate if blast counts correlated with patient response in the AML patients. […] Chi-squared analysis for all evaluable patients also found a significant correlation between high blast counts and resistance to treatment (Ω^2=9.53).
structure (smiles),measurement,value
Cn1cncc1[C@@](N)(c1ccc(Cl)cc1)c1ccc2c(c1)c(-c1cccc(Cl)c1)cc(=O)n2C [Zamestra],"evaluable patients who had a CR, CRp, PR, or SD",24
